Assay results as given in patent publication US20210330611A1, “THERAPY FOR NEUROLOGICAL DISEASES/DISORDERS” (priority 2020, published 2021).
Structures can show the parent of a compound that is named as a salt. Where two headings read alike, the source gives them in different places.

Legend:
in vitro [1] = settings: rat
[2] = tested on: LPS-induced microglia activation; assay: Image-based assay of LPS-induced microglia activation (HTS and dose response); assay type: cell-based, rat; settings: Rattus norvegicus, Microglia; for inhibition at 10 µM: read-out: LPS % inhibition
[3] = tested on: fibrin-induced microglia activation; assay: Image-based assay of fibrin-induced microglia activation (HTS and dose response); assay type: cell-based, rat; settings: for IC50 / inhibition at 10 µM: Rattus norvegicus, Microglia; for inhibition at 10 µM: read-out: Fibrin % inhibition
primary rat microglia [4] = settings: rat
in vitro [5] = settings: rat, Cell Toxicity IC50 (uM) [cFib assay]
[6] = tested on: fibrin- and LPS-induced microglia activation; assay: cells; assay type: cell-based, rat; settings: for inhibition at 10 µM: Rattus norvegicus
primary rat microglia [7] = settings: rat; remark: listed apart in the source
[8] = read-out: LPS IC50 (uM) (Suppl. Table 7)
[9] = read-out: Fibrin IC50 (uM) (Suppl. Table 7)
[10] = Microglia, read-out: Cherry-picked Hit (Suppl. Table 7)
[11] = 48 h, Table 1, dose response 0.001-20 μM, triplicates, primary rat microglia, 48 h, read-out: LPS IC50
[12] = 48 h, primary microglia HTS, LPS stimulation, increased cell size (>800 μm^2) as marker of activation
[13] = LPS-induced microglia activation, dose response, read-out: LPS IC50 (uM) (Suppl. Table 7)
[14] = dose response, LPS-induced microglia activation, read-out: LPS IC50
[15] = 48 h, Table 1, dose response 0.001-20 μM, triplicates, primary rat microglia, 48 h, read-out: Fibrin IC50
[16] = dose response, fibrin-induced microglia activation, read-out: Fibrin IC50
[17] = fibrin-induced microglia activation, dose response, read-out: Fibrin IC50 (uM) (Suppl. Table 7)
[18] = primary microglia HTS, fibrin stimulation, increased cell size (>800 μm^2) as marker of activation
[19] = HTS of 1907 compounds, quadrant by fibrin and LPS inhibition
[20] = Microglia, HTS hit classification, read-out: Hit
[21] = hit classification in microglia HTS, read-out: Cherry-picked Hit (Suppl. Table 7)
[22] = quadrant by fibrin and LPS inhibition in HTS of 1907 compounds
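Throughout, for Fibrin % cell toxicity: share of dead cells sized under 150 µm2 at 10 µM in fibrin-stimulated microglia HTS.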

| Compound | IC50 (in vitro [1]) [µM] | LPS % cell toxicity (primary rat microglia [4]) [%] | IC50 (in vitro [5]) [µM] | Quadrant (FIG. 5b) [6] | inhibition at 10 µM [6, 10] [%] | inhibition at 10 µM ([6]; Microglia, read-out: Hit) [%] | Fibrin % cell toxicity (primary rat microglia [7]) [%] | IC50 [2, 11] [µM] | inhibition at 10 µM [2, 12] [%] | IC50 [2, 13] [µM] | IC50 [2, 14] [µM] | IC50 [3, 15] [µM] | IC50 [3, 16] [µM] | IC50 [3, 17] [µM] | inhibition at 10 µM [3, 18] [%] | Quadrant (FIG. 5b) [6, 19] | inhibition at 10 µM [6, 20] [%] | inhibition at 10 µM [6, 21] [%] | Quadrant (FIG. 5b) ([6]; Table 1, screen at 10 μM) | Quadrant (FIG. 5b) [6, 22] | also measured |
| --- | --- | --- | --- | --- | --- | --- | --- | --- | --- | --- | --- | --- | --- | --- | --- | --- | --- | --- | --- | --- | --- |
| COc1ccc(OC)c(C(O)CNC(=O)CN)c1 (stereo not drawn) [Midodrine hydrochloride, reference compound] | > 20 | 1 | > 20 | Q2 | > 50 | > 50 | 3 | – | – | – | – | – | – | – | – | – | – | – | – | – | inhibition at 10 µM ([2]; 48 h): 52%; IC50 ([2]; 48 h, read-out: LPS IC50): > 20 µM; IC50 ([2]; read-out: LPS IC50 (uM)): > 20 µM; IC50 [2, 8]: > 20 µM; IC50 ([3]; 48 h, read-out: Fibrin IC50): > 20 µM; inhibition at 10 µM [3]: 95%; IC50 ([3]; read-out: Fibrin IC50 (uM)): > 20 µM; IC50 [3, 9]: > 20 µM |
| CC(C)(C)NC(=O)[C@@H]1C[C@@H]2CCCC[C@@H]2CN1C[C@@H](O)[C@H](Cc1ccccc1)NC(=O)[C@H](CC(N)=O)NC(=O)c1ccc2ccccc2n1 [Saquinavir, reference compound] | > 20 | 1 | – | – | – | – | 1 | > 20 | 56 | > 20 | > 20 | > 20 | > 20 | > 20 | 51 | Q2 | > 50 | > 50 | Q2 | Q2 | IC50 (in vitro [5]; cFib assay): > 20 µM |
| OCc1cc(C(O)CNCCCCCCOCCCCc2ccccc2)ccc1O (stereo not drawn) [Salmeterol, reference compound] | > 20 | 1 | > 20 | Q3 | > 50 | > 50 | 1 | – | – | – | – | – | – | – | – | – | – | – | – | – | inhibition at 10 µM ([2]; 48 h): 29%; IC50 ([2]; 48 h, read-out: LPS IC50): 14 µM; IC50 ([2]; read-out: LPS IC50 (uM)): 14 µM; IC50 [2, 8]: 14 µM; Fibrin Selectivity [3]: 10; Fibrin Selectivity (LOG10) [3]: 1.02; IC50 ([3]; 48 h, read-out: Fibrin IC50): 1 µM; inhibition at 10 µM [3]: 56%; IC50 ([3]; read-out: Fibrin IC50 (uM)): 1 µM; IC50 [3, 9]: 1 µM |
| C1CCC(C(CC2CCCCN2)C2CCCCC2)CC1 (stereo not drawn) [Perhexiline maleate, reference compound] | 11 | 69 | – | – | – | – | 3 | 3 | 123 | 3 | 3 | 8 | 8 | 8 | 99 | Q2 | > 50 | > 50 | Q2 | Q2 | IC50 (in vitro [5]; cFib assay): 20 µM |
| Cc1cccc(C(=O)O)c1O [Hydroxytoluic acid, reference compound] | > 20 | 0 | > 20 | – | – | – | 1 | > 20 | 33 | > 20 | > 20 | 20 | 20 | 20 | 69 | Q3 | > 50 | > 50 | Q3 | Q3 | – |
| C[C@@H](O)[C@H]1C(=O)N2C(C(=O)O)=C(SCCN=CN)C[C@H]12 [Imipenem, reference compound] | > 20 | 0 | > 20 | Q3 | > 50 | > 50 | 1 | – | – | – | – | – | – | – | – | – | – | – | – | – | IC50 ([2]; 48 h, read-out: LPS IC50): > 20 µM; IC50 ([2]; read-out: LPS IC50 (uM)): > 20 µM; IC50 [2, 8]: > 20 µM; IC50 ([3]; 48 h, read-out: Fibrin IC50): > 20 µM; IC50 ([3]; read-out: Fibrin IC50 (uM)): > 20 µM; IC50 [3, 9]: > 20 µM |
| CO[C@H]1C[C@@H]2CC[C@@H](C)[C@@](O)(O2)C(=O)C(=O)N2CCCC[C@H]2C(=O)O[C@H]([C@H](C)C[C@@H]2CC[C@@H](O)[C@H](OC)C2)CC(=O)[C@H](C)/C=C(\C)[C@@H](O)[C@@H](OC)C(=O)[C@H](C)C[C@H](C)/C=C/C=C/C=C/1C [Rapamycin, reference compound] | > 20 | 2 | – | – | – | – | 3 | < 0.001 | 53 | < 0.001 | < 0.001 | < 0.001 | < 0.001 | < 0.001 | 86 | Q2 | > 50 | > 50 | Q2 | Q2 | IC50 (in vitro [5]; cFib assay): > 20 µM |
| CNCCC=C1c2ccccc2CCc2ccccc21 [Nortriptyline hydrochloride, reference compound] | 10 | 81 | 20 | Q2 | > 50 | > 50 | 2 | – | – | – | – | – | – | – | – | – | – | – | – | – | inhibition at 10 µM ([2]; 48 h): 114%; IC50 ([2]; 48 h, read-out: LPS IC50): 3 µM; IC50 ([2]; read-out: LPS IC50 (uM)): 3 µM; IC50 [2, 8]: 3 µM; IC50 ([3]; 48 h, read-out: Fibrin IC50): 13 µM; inhibition at 10 µM [3]: 98%; IC50 ([3]; read-out: Fibrin IC50 (uM)): 13 µM; IC50 [3, 9]: 13 µM |
| CC(CN(C)C)CN1c2ccccc2CCc2ccccc21 (stereo not drawn) [Trimipramine maleate, reference compound] | 12 | 5 | – | – | – | – | 1 | 5 | 92 | 5 | 5 | 7 | 7 | 7 | 52 | Q2 | > 50 | > 50 | Q2 | Q2 | IC50 (in vitro [5]; cFib assay): > 20 µM |
| Clc1ccc(COC(Cn2ccnc2)c2ccc(Cl)cc2Cl)c(Cl)c1 (stereo not drawn) [Miconazole nitrate, reference compound] | > 20 | 0 | > 20 | Q3 | > 50 | > 50 | 1 | – | – | – | – | – | – | – | – | – | – | – | – | – | inhibition at 10 µM ([2]; 48 h): 23%; inhibition at 10 µM [3]: 53% |
| CCCSc1ccc2nc(NC(=O)OC)[nH]c2c1 [Albendazole, reference compound] | > 20 | 1 | > 20 | Q3 | > 50 | > 50 | 1 | – | – | – | – | – | – | – | – | – | – | – | – | – | inhibition at 10 µM ([2]; 48 h): 16%; IC50 ([2]; 48 h, read-out: LPS IC50): 6 µM; IC50 ([2]; read-out: LPS IC50 (uM)): 6 µM; IC50 [2, 8]: 6 µM; Fibrin Selectivity [3]: 2; Fibrin Selectivity (LOG10) [3]: 0.22; IC50 ([3]; 48 h, read-out: Fibrin IC50): 4 µM; inhibition at 10 µM [3]: 64%; IC50 ([3]; read-out: Fibrin IC50 (uM)): 4 µM; IC50 [3, 9]: 4 µM |
| O=c1[nH]c2ccccc2n1C1CCN(CCCC(c2ccc(F)cc2)c2ccc(F)cc2)CC1 [Pimozide, reference compound] | > 20 | 0 | – | – | – | – | 2 | 18 | 45 | 18 | 18 | > 20 | > 20 | > 20 | 70 | Q3 | > 50 | > 50 | Q3 | Q3 | IC50 (in vitro [5]; cFib assay): > 20 µM |
| C#C[C@]1(O)CC[C@H]2[C@@H]3CCc4cc(O)ccc4[C@H]3CC[C@@]21C [Ethinyl estradiol, reference compound] | > 20 | – | > 20 | – | – | – | 1 | > 20 | 37 | > 20 | > 20 | > 20 | > 20 | > 20 | 58 | Q3 | > 50 | > 50 | Q3 | Q3 | inhibition at 10 µM ([2]; primary microglia HTS, LPS stimulation, compounds at 10 μM): 5%; inhibition at 10 µM ([3]; primary microglia HTS, fibrin stimulation, compounds at 10 μM): 9%; Quadrant (FIG. 5b) ([6]; classification by fibrin and LPS inhibition, HTS at 10 μM): Q4 |
